# Experimental data from US9695155B2, “Herbicidal substituted pyrimidinyloxy benzene compounds” (E. I. DU PONT DE NEMOURS AND COMPANY, priority 2013, dated 2017).
# What was measured:
# barnyardgrass [1] = test: Test A preemergence; assay type: in vivo, Echinochloa crus-galli; details: for Plant response rating, Barnyardgrass: 125 g ai/ha, 0 to 100 scale where 0 is no effect and 100 is complete control; for Barnyardgrass plant response rating: 500 g ai/ha, 0 to 100 scale, 0 no effect, 100 complete control, approx. 10 days
# In short: (§1)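 Visual injury scored 0–100 (100 = complete control) against untreated controls about 10 days after treatment in a greenhouse. Test chemicals, formulated with surfactant in non-phytotoxic solvent, were sprayed on soil preemergence or on 2-10 cm, one- to two-leaf plants postemergence.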
# large (Lg) crabgrass [2] = test: Test A preemergence; assay type: in vivo, Digitaria sanguinalis; details: for Plant response rating, Crabgrass, Large: 125 g ai/ha, 0 to 100 scale where 0 is no effect and 100 is complete control; for Crabgrass, Large plant response rating: 500 g ai/ha, 0 to 100 scale, 0 no effect, 100 complete control, approx. 10 days
# In short: as §1
# giant foxtail [3] = test: Test A preemergence; assay type: in vivo, Setaria faberii; details: for Plant response rating, Foxtail, Giant: 125 g ai/ha, 0 to 100 scale where 0 is no effect and 100 is complete control; for Foxtail, Giant plant response rating: 500 g ai/ha, 0 to 100 scale, 0 no effect, 100 complete control, approx. 10 days
# In short: as §1
# morningglory [4] = test: Test A preemergence; assay type: in vivo, Ipomoea spp.; details: for Plant response rating, Morningglory: 125 g ai/ha, 0 to 100 scale where 0 is no effect and 100 is complete control; for Morningglory plant response rating: 500 g ai/ha, 0 to 100 scale, 0 no effect, 100 complete control, approx. 10 days
# In short: as §1
# pigweed [5] = test: Test A preemergence; assay type: in vivo, Amaranthus retroflexus; details: for Plant response rating, Pigweed: 125 g ai/ha, 0 to 100 scale where 0 is no effect and 100 is complete control; for Pigweed plant response rating: 500 g ai/ha, 0 to 100 scale, 0 no effect, 100 complete control, approx. 10 days
# In short: as §1
# velvetleaf [6] = test: Test A preemergence; assay type: in vivo, Abutilon theophrasti; details: for Plant response rating, Velvetleaf: 125 g ai/ha, 0 to 100 scale where 0 is no effect and 100 is complete control; for Velvetleaf plant response rating: 500 g ai/ha, 0 to 100 scale, 0 no effect, 100 complete control, approx. 10 days
# In short: as §1
# wheat [7] = test: Test A preemergence; assay type: in vivo, Triticum aestivum; details: for Plant response rating, Wheat: 125 g ai/ha, 0 to 100 scale where 0 is no effect and 100 is complete control; for Wheat plant response rating: 500 g ai/ha, 0 to 100 scale, 0 no effect, 100 complete control, approx. 10 days
# In short: as §1
# corn [8] = test: Test A preemergence; assay type: in vivo, Zea mays; details: for Plant response rating, Corn: 125 g ai/ha, 0 to 100 scale where 0 is no effect and 100 is complete control; for Corn plant response rating: 500 g ai/ha, 0 to 100 scale, 0 no effect, 100 complete control, approx. 10 days
# In short: as §1
# barnyardgrass [9] = test: Test A postemergence; assay type: in vivo, Echinochloa crus-galli
# In short: as §1
# large (Lg) crabgrass [10] = test: Test A postemergence; assay type: in vivo, Digitaria sanguinalis
# In short: as §1
# giant foxtail [11] = test: Test A postemergence; assay type: in vivo, Setaria faberii
# In short: as §1
# morningglory [12] = test: Test A postemergence; assay type: in vivo, Ipomoea spp.
# In short: as §1
# pigweed [13] = test: Test A postemergence; assay type: in vivo, Amaranthus retroflexus
# In short: as §1
# velvetleaf [14] = test: Test A postemergence; assay type: in vivo, Abutilon theophrasti
# In short: as §1
# wheat [15] = test: Test A postemergence; assay type: in vivo, Triticum aestivum
# In short: as §1
# corn [16] = test: Test A postemergence; assay type: in vivo, Zea mays
# In short: as §1
# rice = test: Test B flooded paddy test; assay type: in vivo, Oryza sativa; details: Flood, 250 g ai/ha; 0 to 100 scale where 0 is no effect and 100 is complete control
# In short: (§2)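 Greenhouse flooded-pot test: compounds dosed into 3 cm standing water over 2-leaf plants, flood held constant. Rated visually after 13–15 days on 0–100 (complete control = 100); a dash marks no test result.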
# sedge, umbrella = test: Test B flooded paddy test; assay type: in vivo, Cyperus difformis; details: Flood, 250 g ai/ha; 0 to 100 scale where 0 is no effect and 100 is complete control
# In short: as §2
# Heteranthera limosa = test: Test B flooded paddy test; assay type: in vivo; details: Flood, 250 g ai/ha; 0 to 100 scale where 0 is no effect and 100 is complete control
# In short: as §2
# barnyardgrass [17] = test: Test B flooded paddy test; assay type: in vivo, Echinochloa crus-galli; details: Flood, 250 g ai/ha; 0 to 100 scale where 0 is no effect and 100 is complete control
# In short: as §2
# [18] = 125 g ai/ha, 0 to 100 scale where 0 is no effect and 100 is complete control
# [19] = 500 g ai/ha, 0 to 100 scale, 0 no effect, 100 complete control
SMILES,"Plant response rating, Barnyardgrass (barnyardgrass [1])",Barnyardgrass plant response rating (barnyardgrass [1]),"Plant response rating, Crabgrass, Large (large (Lg) crabgrass [2])","Crabgrass, Large plant response rating (large (Lg) crabgrass [2])","Plant response rating, Foxtail, Giant (giant foxtail [3])","Foxtail, Giant plant response rating (giant foxtail [3])","Plant response rating, Morningglory (morningglory [4])",Morningglory plant response rating (morningglory [4]),"Plant response rating, Pigweed (pigweed [5])",Pigweed plant response rating (pigweed [5]),"Plant response rating, Velvetleaf (velvetleaf [6])",Velvetleaf plant response rating (velvetleaf [6]),"Plant response rating, Wheat (wheat [7])",Wheat plant response rating (wheat [7]),"Plant response rating, Corn (corn [8])",Corn plant response rating (corn [8]),"Plant response rating, Barnyardgrass (barnyardgrass [9]; [18])","Plant response rating, Barnyardgrass (barnyardgrass [9]; [19])","Plant response rating, Crabgrass, Large (large (Lg) crabgrass [10]; [18])","Plant response rating, Crabgrass, Large (large (Lg) crabgrass [10]; [19])",also measured
FC(F)(F)c1ccn(-c2ccccc2Sc2ncc(Cl)cn2)n1 [Compound 28],0,10,0,10,0,10,0,0,0,40,0,0,0,0,0,0,0,10,0,20,"Plant response rating, Foxtail, Giant (giant foxtail [11]; [18]): 0; Plant response rating, Foxtail, Giant (giant foxtail [11]; [19]): 10; Plant response rating, Morningglory (morningglory [12]; [18]): 10; Plant response rating, Morningglory (morningglory [12]; [19]): 10; Plant response rating, Pigweed (pigweed [13]; [18]): 10; Plant response rating, Pigweed (pigweed [13]; [19]): 30; Plant response rating, Velvetleaf (velvetleaf [14]; [18]): 0; Plant response rating, Velvetleaf (velvetleaf [14]; [19]): 30; Plant response rating, Wheat (wheat [15]; [18]): 0; Plant response rating, Wheat (wheat [15]; [19]): 0; Plant response rating, Corn (corn [16]; [18]): 0; Plant response rating, Corn (corn [16]; [19]): 20; Plant response rating, Rice (rice): 0; Plant response rating, Sedge, Umbrella (sedge, umbrella): 0; Plant response rating, Ducksalad (Heteranthera limosa): 35; Plant response rating, Barnyardgrass (barnyardgrass [17]): 0"
CC(C)(C)c1ccn(-c2ccccc2Oc2ncc(Cl)cn2)n1 [Compound 29],0,20,10,40,10,20,0,0,0,0,0,40,0,0,0,0,0,0,10,40,"Plant response rating, Foxtail, Giant (giant foxtail [11]; [18]): 20; Plant response rating, Foxtail, Giant (giant foxtail [11]; [19]): 30; Plant response rating, Morningglory (morningglory [12]; [18]): 0; Plant response rating, Morningglory (morningglory [12]; [19]): 0; Plant response rating, Pigweed (pigweed [13]; [18]): 20; Plant response rating, Pigweed (pigweed [13]; [19]): 50; Plant response rating, Velvetleaf (velvetleaf [14]; [18]): 20; Plant response rating, Velvetleaf (velvetleaf [14]; [19]): 40; Plant response rating, Wheat (wheat [15]; [18]): 0; Plant response rating, Wheat (wheat [15]; [19]): 0; Plant response rating, Corn (corn [16]; [18]): 0; Plant response rating, Corn (corn [16]; [19]): 0; Plant response rating, Rice (rice): 0; Plant response rating, Sedge, Umbrella (sedge, umbrella): 0; Plant response rating, Ducksalad (Heteranthera limosa): 0; Plant response rating, Barnyardgrass (barnyardgrass [17]): 0"
CC(C)(C)c1ccn(-c2ccccc2Oc2ncc(Br)cn2)n1 [Compound 30],0,10,40,60,0,30,0,0,0,0,10,40,0,0,0,0,10,10,30,40,"Plant response rating, Foxtail, Giant (giant foxtail [11]; [18]): 10; Plant response rating, Foxtail, Giant (giant foxtail [11]; [19]): 10; Plant response rating, Morningglory (morningglory [12]; [18]): 0; Plant response rating, Morningglory (morningglory [12]; [19]): 0; Plant response rating, Pigweed (pigweed [13]; [18]): 0; Plant response rating, Pigweed (pigweed [13]; [19]): 30; Plant response rating, Velvetleaf (velvetleaf [14]; [18]): 20; Plant response rating, Velvetleaf (velvetleaf [14]; [19]): 30; Plant response rating, Wheat (wheat [15]; [18]): 0; Plant response rating, Wheat (wheat [15]; [19]): 0; Plant response rating, Corn (corn [16]; [18]): 0; Plant response rating, Corn (corn [16]; [19]): 0; Plant response rating, Rice (rice): 0; Plant response rating, Sedge, Umbrella (sedge, umbrella): 0; Plant response rating, Ducksalad (Heteranthera limosa): 0; Plant response rating, Barnyardgrass (barnyardgrass [17]): 0"
